From patent US4797427A, “Aromatic diamines containing sulfonic acid aryl esters, a process for their production and their use in the production of polyurethane plastics” (Bayer Aktiengesellschaft, priority 1987, dated 1989)

Assay: Ames test
Type: cell-based

In the case of Cc1c(N)cc(S(=O)(=O)Oc2ccccc2)cc1N [2,6-diaminotoluene-4-sulfonic acid phenyl ester], the Ames test is reported as “Ames-negative”.
